Test results reported in article PMC3548404 (Nature, 2010).

Key:
AtSLAC1 [1] = target: T1, AtSLAC1 (Arabidopsis thaliana, UniProt Q9LD83); conditions: 30 mM CsCl bath, pH 5.6; permeant anion; no AtOST1
T1 sequence (Q9LD83 1-556): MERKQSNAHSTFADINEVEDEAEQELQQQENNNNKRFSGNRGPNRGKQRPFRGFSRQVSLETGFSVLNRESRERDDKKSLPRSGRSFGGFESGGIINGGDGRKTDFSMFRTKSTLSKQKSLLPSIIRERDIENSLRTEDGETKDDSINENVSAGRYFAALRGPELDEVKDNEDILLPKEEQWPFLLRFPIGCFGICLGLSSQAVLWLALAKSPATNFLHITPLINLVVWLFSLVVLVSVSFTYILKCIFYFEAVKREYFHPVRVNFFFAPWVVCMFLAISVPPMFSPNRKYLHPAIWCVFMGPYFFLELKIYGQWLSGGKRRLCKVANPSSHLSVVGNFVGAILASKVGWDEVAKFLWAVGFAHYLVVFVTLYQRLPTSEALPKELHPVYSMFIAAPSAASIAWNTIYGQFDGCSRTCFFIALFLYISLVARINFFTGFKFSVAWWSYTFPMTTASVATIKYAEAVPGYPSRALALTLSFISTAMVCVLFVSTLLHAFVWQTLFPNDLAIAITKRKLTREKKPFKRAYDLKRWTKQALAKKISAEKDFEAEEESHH

AtSLAC1 [2] = target: T1, AtSLAC1; test: two-electrode voltage clamp, Xenopus oocytes; type: cell-based; conditions: 50 mM sodium salt in bath, pH 5.6; permeant anion

Row | SMILES | chloride current at -90 mV (AtSLAC1 [1]) | P[X]/P[Cl] (AtSLAC1 [2])
1 | Cl [chloride] | We observed modest-sized chloride currents with wild-type AtSLAC1 cRNA | –
2 | O=[N+]([O-])O [nitrate] | – | selective among anions, with greater permeability for nitrate than for chloride
